The record followed here is ChEMBL document CHEMBL1201862, “PubChem BioAssay data set” (2004).

As usually defined, the EC50 is the midpoint of the concentration-response curve. As a reminder, the AC50 is the concentration at which the activity in the assay is half-maximal.

A short description of data set [1]: NIH3T3 cell viability loss – ATP luminescence, mouse fibroblasts, counter-screen, dose response (AID 2010).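 Also: cells exposed to compound for about 90 hours before reading.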 Type of data set: functional, cell-based. In general terms: A counterscreen serves to expose hits that act by an unwanted route or on another target.
The nature of data set [2]: Trypanosoma cruzi growth suppression in host cells – NIH3T3 host cells, beta-gal luminescence, confirmation (AID 2044).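 Also: intracellular parasites grown in NIH/3T3 mouse fibroblasts as host cells; luminescent beta-galactosidase reporter signal from transgenic T. cruzi replicating inside host cells; inhibitors lower the luminescence signal.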 Type of data set: functional, cell-based.
The next data set addresses Cytochrome P450 3A4 (Homo sapiens, UniProt P08684).
A further data set concerns the target Cytochrome P450 2C19 (Homo sapiens, UniProt P33261). The data set can be described thus: Cytochrome panel assay with activity outcomes. Panel member name: p450-cyp2c19 Compounds with AC50 equal or less than 10 uM are considered active. The class given is functional.

The structures appear in SMILES notation. Calls of active or inactive are those of the source.

Chain of Cytochrome P450 2C19 (P33261 whole entry): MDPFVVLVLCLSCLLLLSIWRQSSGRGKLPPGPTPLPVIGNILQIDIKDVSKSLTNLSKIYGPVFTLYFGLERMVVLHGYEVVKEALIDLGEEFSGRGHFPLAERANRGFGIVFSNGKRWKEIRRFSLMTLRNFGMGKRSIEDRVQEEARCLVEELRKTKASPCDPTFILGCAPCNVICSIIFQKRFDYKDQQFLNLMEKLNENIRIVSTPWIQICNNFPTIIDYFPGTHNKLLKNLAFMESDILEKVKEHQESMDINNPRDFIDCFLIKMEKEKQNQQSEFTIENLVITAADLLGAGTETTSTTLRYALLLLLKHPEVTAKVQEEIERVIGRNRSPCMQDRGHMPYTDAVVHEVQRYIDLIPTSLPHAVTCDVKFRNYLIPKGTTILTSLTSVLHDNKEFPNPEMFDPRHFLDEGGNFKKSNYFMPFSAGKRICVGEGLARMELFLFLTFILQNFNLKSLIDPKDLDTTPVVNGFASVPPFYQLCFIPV
Chain of Cytochrome P450 3A4 (P08684 whole entry): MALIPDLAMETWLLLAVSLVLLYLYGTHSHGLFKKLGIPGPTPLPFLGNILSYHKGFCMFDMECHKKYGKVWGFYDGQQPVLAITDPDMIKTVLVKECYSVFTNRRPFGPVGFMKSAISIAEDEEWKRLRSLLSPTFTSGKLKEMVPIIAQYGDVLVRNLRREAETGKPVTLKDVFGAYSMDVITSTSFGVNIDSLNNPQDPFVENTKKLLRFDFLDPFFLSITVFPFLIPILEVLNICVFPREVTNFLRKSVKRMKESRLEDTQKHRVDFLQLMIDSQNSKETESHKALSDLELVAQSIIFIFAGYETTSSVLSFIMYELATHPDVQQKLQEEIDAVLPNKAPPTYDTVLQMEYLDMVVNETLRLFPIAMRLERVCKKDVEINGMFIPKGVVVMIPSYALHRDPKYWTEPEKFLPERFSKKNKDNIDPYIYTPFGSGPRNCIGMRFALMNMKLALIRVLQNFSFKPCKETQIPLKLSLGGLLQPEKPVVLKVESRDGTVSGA

Regarding `CCCCN=C(S)N1CCn2cccc2C1c1cccnc1` (stereo unspecified), the concentration giving a half-maximal response (EC50) in data set [1] was > 60 µM (inconclusive); in data set [2], 1.77 µM (active).
For `O=C(Nc1nnc(C2CC2)s1)c1ccncc1`, the AC50 on Cytochrome P450 3A4 was 14.1 µM (inconclusive).
Consider `Fc1ccc(COc2ccccc2CNCc2ccncc2)cc1`, for which the EC50 in data set [2] is 2.14 µM (active).
For the compound `COc1ccc(Cc2noc(CN3CCN(Cc4cccc(Cl)c4)CC3)n2)cc1OC`, the EC50 in data set [1] is > 30 µM (not active); in data set [2], 0.788 µM (active).
Taken in the same sequence, the figures for `CCOc1ccc(NC(=O)CCSc2nc3c(c(CC)c2C#N)C(=O)CC(C)(C)C3)cc1` were > 60 µM (inconclusive) and 2.94 µM (active).
Consider `COC(=O)NC/C=C\c1nc(CC/C=C\C(=O)O[C@H]2C[C@H]3CC(=O)O[C@@H](/C=C\CC(C)C)C[C@@H]4CC[C@H](C)[C@H](C[C@@H](OC)C[C@H](C2)O3)O4)co1`, for which the AC50 entry at Cytochrome P450 2C19 is recorded as “inconclusive”.
As to `CN1CCN(c2oc(COc3ccc(-c4ccccc4)cc3)nc2C#N)CC1`, the concentration giving a half-maximal response (EC50) was > 60 µM (not active) in data set [1] and 0.226 µM (active) in data set [2].
Regarding `CCOc1ccc(Br)cc1C1C(C(=O)OC)=C(N)Oc2cc(N(C)C)ccc21` (stereo unspecified), the half-maximal effective concentration (EC50) in data set [1] is 8.1 µM (active); in data set [2] it was 0.826 µM (active).
As to `c1cncc(-c2nc(NCCCN3CCOCC3)c3c4c(sc3n2)CCC4)c1`, the EC50 in data set [1] was > 60 µM (not active); in data set [2], 2.58 µM (active).
Take `COc1ccc(NC(=O)c2cccc(Cn3cc(Br)c([N+](=O)[O-])n3)c2)c(C)c1`: the concentration for a half-maximal effect (EC50) in data set [1] was 9.14 µM (active); in data set [2], 0.32 µM (active).
As to `COc1ccc2c(c1)CCCC21NC(=O)N(CC(N)=O)C1=O` (stereo unspecified), on Cytochrome P450 2C19 (read-out: AC50), the AC50 is 39.8 µM (inconclusive).
In the case of `Cc1ccc(NC(=S)/N=C(\N)Nc2nc(C)c3cc(C)c(C)cc3n2)cc1C`, the EC50 in data set [2] was 1.98 µM (active).
As to `Cc1cn(CC[C@H](N)C(=O)O)c(=O)[nH]c1=O`, on Cytochrome P450 2C19, the half-maximal activity concentration (AC50) entry was “inconclusive”.
For the compound `COc1ccccc1NC(=O)N1CCCC1C(=O)NCc1ccc2c(c1)OCO2` (stereo unspecified), at Cytochrome P450 2C19 (read-out: AC50), the AC50 was 28.2 µM (inconclusive).
Turning to `CCS(=O)(=O)N1CCN(c2ccc(C(=O)NC3C4CC5CC(C4)CC3C5)cc2[N+](=O)[O-])CC1` (stereo unspecified), the concentration giving a half-maximal response (EC50) in data set [1] was > 30 µM (not active); in data set [2], 2.32 µM (active).
Taken in the same sequence, the figures for `Fc1ccc(NC(=S)N2CCn3cccc3C2c2cccnc2)cc1` (stereo unspecified) were > 60 µM (not active) and 0.229 µM (active).
Consider `O=C(CCCCCn1c(=S)[nH]c2cc3c(cc2c1=O)OCO3)N1CCN(C2CCCCC2)CC1`, for which the half-maximal activity concentration (AC50) on Cytochrome P450 2C19 (read-out: AC50) was 7.08 µM (inconclusive).
Still for that read-out and setting: the result for `COc1ccc(-n2c(=O)cnc3cnc(Oc4ccccc4)nc32)cc1` reads 39.8 µM (inconclusive).
As for `CN(CCOc1ccccc1)CC(O)COCc1ccccc1F` (stereo unspecified), the figures for the half-maximal effective concentration (EC50) in data set [1] and in data set [2] were > 60 µM (not active) and 0.526 µM (active), respectively.
In the case of `CC1(C)CC2CC(C)(CN2C(=O)c2ccc([N+](=O)[O-])cc2[N+](=O)[O-])C1` (stereo unspecified), the EC50 in data set [1] was > 60 µM (not active); in data set [2], 0.955 µM (active).
For `CCC1(C)CC(=O)NC(=O)C1` [BEMEGRIDE], on Cytochrome P450 2C19, the concentration at half-maximal activity (AC50) entry was “inconclusive”.
Turning to `Cc1cc2c(NC(=O)Nc3ccc(C(F)(F)F)cc3)cccc2nn1`, the EC50 is > 60 µM (not active) in data set [1] and 4.55 µM (active) in data set [2].
As to `CCC1(CC)C(=O)N(Cc2ccccc2)C(=O)N(Cc2ccccc2)C1=O`, the values for the EC50 in data set [1] and in data set [2] were > 30 µM (not active) and 1.71 µM (active), respectively.
Take `O=C(COc1ccccc1)N1CCN(c2nnc(-c3ccccc3)c3ccccc23)CC1`: the results for the half-maximal effective concentration (EC50) in data set [1] and in data set [2] were > 60 µM (not active) and 1.77 µM (active), respectively.
With `Cn1c(S)nnc1CNS(=O)(=O)c1ccc(F)cc1`, on Cytochrome P450 2C19 (read-out: AC50), the AC50 was 39.8 µM (inconclusive).
Regarding `Cc1nc(Nc2ccc(S(=O)(=O)N3CCCCC3C)cc2)c2nnn(Cc3ccccc3)c2n1` (stereo unspecified), the figures for the concentration giving a half-maximal response (EC50) in data set [1] and in data set [2] were > 60 µM (not active) and 1.92 µM (active), respectively.
